Test results published in patent US12577231B2, “Androgen receptor PROTACS” (GlaxoSmithKline Intellectual Property Development Limited, priority 2023, dated 2026).
Changes are numbered by the printed parent chain. Read-outs that look alike come from different tables or passages of the source.

Legend:
[1] = male, Wistar Han, rat, in vivo, po
Description: Systemic exposure of various forms of N-((1r,3r)-3-(4-cyano-3-methoxyphenoxy)-2,2,4,4-tetramethylcyclobutyl)-4-(4-((4-(4-(2,4-dioxotetrahydropyrimidin-1(2H)-yl)-1H-pyrazolo[4,3-c]pyridin-1-yl)piperidin-1-yl)methyl)piperidin-1-yl)-3-fluorobenzamide were assessed following oral administration of 30 mg/kg of a suspension formulation (1% methylcellulose (aq)) or following oral administration of 35 mg/kg of a suspension formulation (100% PEG400) in the male Wistar Han rat. […] The sampling period was 72 hours, and the data is reported in the attached table as mean±SD (n=3).

Androgen receptor H875Y = biological target: T1, Androgen receptor H875Y (Homo sapiens, UniProt P10275, H875Y); experiment: Degradation of overexpressed Androgen Receptor in A549 cells (HiBiT), H875Y; format: cell-based; settings: A549 cells overexpressing AR H875Y, cycloheximide, 24 hours
T1 construct: expressed in transfected cells; host or cells: A549, transduced, puromycin selected
T1 sequence (P10275 1-920 H875Y): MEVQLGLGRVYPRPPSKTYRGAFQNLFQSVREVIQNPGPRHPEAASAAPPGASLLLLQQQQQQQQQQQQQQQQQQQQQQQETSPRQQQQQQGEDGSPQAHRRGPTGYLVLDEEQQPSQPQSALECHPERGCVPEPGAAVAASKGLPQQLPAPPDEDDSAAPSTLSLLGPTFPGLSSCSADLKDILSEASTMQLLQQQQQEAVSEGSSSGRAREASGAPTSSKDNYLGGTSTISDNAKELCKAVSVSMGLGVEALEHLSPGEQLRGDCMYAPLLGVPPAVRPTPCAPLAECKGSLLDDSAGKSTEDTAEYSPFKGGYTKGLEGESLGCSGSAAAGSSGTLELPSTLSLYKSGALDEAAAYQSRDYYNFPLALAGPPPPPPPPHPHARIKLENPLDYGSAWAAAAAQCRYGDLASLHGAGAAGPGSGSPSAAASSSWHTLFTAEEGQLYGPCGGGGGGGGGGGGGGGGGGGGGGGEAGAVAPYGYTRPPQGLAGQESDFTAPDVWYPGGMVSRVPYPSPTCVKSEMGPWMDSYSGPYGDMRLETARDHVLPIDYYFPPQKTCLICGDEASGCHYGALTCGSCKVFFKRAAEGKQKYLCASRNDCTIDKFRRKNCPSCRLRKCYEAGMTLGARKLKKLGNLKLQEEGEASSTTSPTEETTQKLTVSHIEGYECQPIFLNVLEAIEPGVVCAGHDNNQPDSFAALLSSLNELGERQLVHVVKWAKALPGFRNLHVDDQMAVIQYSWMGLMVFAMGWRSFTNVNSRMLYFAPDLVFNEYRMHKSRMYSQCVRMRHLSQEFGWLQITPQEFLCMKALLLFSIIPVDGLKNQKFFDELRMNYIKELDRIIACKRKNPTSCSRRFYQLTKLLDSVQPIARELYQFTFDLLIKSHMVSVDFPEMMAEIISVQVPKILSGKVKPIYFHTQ
Description: (§1) A549 cells were transduced to express wild type androgen receptor and Androgen receptor containing the following mutations (L702H, H875Y W742C W742L F877L, T878A and T878A/H875Y) with HiBiT tags. Transduced cells following puromycin selection were maintained in a humidified incubator (at 37° C. and 5% CO2 in the DMEM medium supplemented with 1% (v/v) Pen/Strep, 1% (v/v) Glutamax and 10% (v/v) FBS. A549 cells expressing each AR construct were detached from plate and counted. Cell suspensions at density 0.2 million per mL were prepared. Cell suspension was supplemented with 100 μg/mL of cycloheximide to block protein synthesis. Cells were preincubated with cycloheximide for 1 hr before seeding. Cells were seeded onto 384-well plate at density of 5,000 in 25 μL per well. A two fold serial dilution of test compounds, starting from 1 μM (row A) in 2-fold serial dilution series across the column using Tecan D300e dispenser. […]
(§2) Nano-Glo HiBiT Lytic reagent was prepared by adding LgBiT protein and Nano-Glo® substrate to lytic buffer pre-equilibrated at room temperature following manufacturer protocol (https://www.promega.co.uk/resources/protocols/technical-manuals/101/nanoglo-luciferase-assay-system-protocol). […] The plates were then centrifuged (100×G, 1 min) and incubated on shaker for 10 mins before taking readings on Pherastar Luminescence microplate reader. […]

Androgen receptor T878A = biological target: T2, Androgen receptor T878A (Homo sapiens, UniProt P10275, T878A); experiment: Degradation of overexpressed Androgen Receptor in A549 cells (HiBiT), T878A; format: cell-based; settings: A549 cells overexpressing AR T878A, cycloheximide, 24 hours
T2 construct: expressed in transfected cells; host or cells: A549, transduced, puromycin selected
T2 sequence (P10275 1-920 T878A): T1 sequence (P10275 1-920 H875Y) with Y875H, T878A
Description: as §1, §2

With `COc1cc(O[C@H]2C(C)(C)[C@H](NC(=O)c3ccc(N4CCC(CN5CCC(n6ncc7c(N8CCC(=O)NC8=O)nccc76)CC5)CC4)c(F)c3)C2(C)C)ccc1C#N` [Example 20, N-((1r,3r)-3-(4-Cyano-3-methoxyphenoxy)-2,2,4,4-tetramethylcyclobutyl)-4-(4-((4-(4-(2,4-dioxotetrahydropyrimidin-1(2H)-yl)-1H-pyrazolo[4,3-c]pyridin-1-yl)piperidin-1-yl)methyl)piperidin-1-yl)-3-fluorobenzamide] the “Dose Normalised AUC0-t” value ([1]; 30 mg/kg) was 240 ± 38 (ng · h/mL)/(mg/kg, the “Dose Normalised AUC0-t” value ([1]; 35 mg/kg) was 744 ± 66 (ng · h/mL)/(mg/kg and the “Summary pXC50” value (Androgen receptor H875Y) was 8.83. The “Summary pXC50” value (Androgen receptor T878A) was 8.81.
